According to PubChem BioAssay AID2060900 (Molecular Pharmacology Branch, DTP, NCI, 2025):

System: 521955-158-R2-J5-PDC complex spheroids, viability
Assay: Anticancer human tumor 521955-158-R2-J5-PDC patient-derived pancreatic carcinoma cell line growth inhibition [RAS]
Details: for IC50: curve of first compound; for viability, T/C: stronger effect = lower value; active = viability on the fitted dose curve at most 10% of control; inactive = the rest
Outline: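 Agents were tested in combination matrices in half-log decrements from a top concentration at or near clinical Cmax (10 microM if undetermined). Targets were multi-cell spheroids of tumour lines plus HUVEC and MSC stromal cells.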
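Note: compound exposure lasted seven days before the viability read.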
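Throughout, for viability, T/C: spheroids also contain HUVEC endothelial cells and mesenchymal stem cells as stroma.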

Nc1ccn(C2OC(CO)C(O)C2(F)F)c(=O)n1 (configuration not stated) + C=CC(=O)N1CCN(c2nc(OCC3CCCN3C)nc3c(F)c(-c4nc(N)cc(C)c4C(F)(F)F)c(Cl)cc23)C(C)C1
258 nM: IC50 (second compound 0.316 µM)
273 nM: IC50 (second compound 0.0316 µM)
225 nM: IC50 (second compound 0.01 µM)
136 nM: IC50 (second compound 0.00316 µM)
233 nM: IC50 (second compound 1 µM)
144 nM: IC50 (second compound 0.1 µM)
inactive: viability, T/C (second compound 0.00316 µM, first compound 0.00316 µM) 94.2% | viability, T/C (second compound 0.00316 µM, first compound 0.01 µM) 88.7% | viability, T/C (second compound 0.00316 µM, first compound 0.0316 µM) 65% | viability, T/C (second compound 0.00316 µM, first compound 0.1 µM) 59% | viability, T/C (second compound 0.00316 µM, first compound 0.316 µM) 36.6% | viability, T/C (second compound 0.00316 µM, first compound 1 µM) 12.9% | viability, T/C (second compound 0.01 µM, first compound 0.00316 µM) 94.2% | viability, T/C (second compound 0.01 µM, first compound 0.01 µM) 89% | viability, T/C (second compound 0.01 µM, first compound 0.0316 µM) 75.5% | viability, T/C (second compound 0.01 µM, first compound 0.1 µM) 73.3% | viability, T/C (second compound 0.01 µM, first compound 0.316 µM) 39.8% | viability, T/C (second compound 0.01 µM, first compound 1 µM) 15.3% | viability, T/C (second compound 0.0316 µM, first compound 0.00316 µM) 93.2% | viability, T/C (second compound 0.0316 µM, first compound 0.01 µM) 93.8% | viability, T/C (second compound 0.0316 µM, first compound 0.0316 µM) 72.4% | viability, T/C (second compound 0.0316 µM, first compound 0.1 µM) 67% | viability, T/C (second compound 0.0316 µM, first compound 0.316 µM) 52.7% | viability, T/C (second compound 0.0316 µM, first compound 1 µM) 13% | viability, T/C (second compound 0.1 µM, first compound 0.00316 µM) 119% | viability, T/C (second compound 0.1 µM, first compound 0.01 µM) 88.6% | viability, T/C (second compound 0.1 µM, first compound 0.0316 µM) 72.4% | viability, T/C (second compound 0.1 µM, first compound 0.1 µM) 50.5% | viability, T/C (second compound 0.1 µM, first compound 0.316 µM) 51.5% | viability, T/C (second compound 0.1 µM, first compound 1 µM) 11.9% | viability, T/C (second compound 0.316 µM, first compound 0.00316 µM) 103% | viability, T/C (second compound 0.316 µM, first compound 0.01 µM) 93.4% | viability, T/C (second compound 0.316 µM, first compound 0.0316 µM) 77.1% | viability, T/C (second compound 0.316 µM, first compound 0.1 µM) 70.1% | viability, T/C (second compound 0.316 µM, first compound 0.316 µM) 49.6% | viability, T/C (second compound 0.316 µM, first compound 1 µM) 11.7% | viability, T/C (second compound 1 µM, first compound 0.00316 µM) 106% | viability, T/C (second compound 1 µM, first compound 0.01 µM) 100% | viability, T/C (second compound 1 µM, first compound 0.0316 µM) 74.4% | viability, T/C (second compound 1 µM, first compound 0.1 µM) 63% | viability, T/C (second compound 1 µM, first compound 0.316 µM) 54.8% | viability, T/C (second compound 1 µM, first compound 1 µM) 13%
